Assay results taken from PubChem BioAssay (NCI).
Where “and” joins values, the source holds several entries; their conditions need not be identical. Identical values can stand only once.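 Growth conditions: 96-well plates. Treatment: test compound, 48 hours, 5 concentrations. Analysis: linear interpolation between bracketing concentrations; unreached endpoints set to highest concentration. At the GI50, growth is halved. TGI: concentration producing complete growth inhibition.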

Experiments:
Assay in all cases: DTP human tumour cell line panel, 48 h
UO-31 renal = tested on: UO-31 renal
OVCAR-8 ovarian = tested on: OVCAR-8 ovarian
SNB-75 CNS = tested on: SNB-75 CNS
NCI-H522 lung = tested on: NCI-H522 lung
COLO 205 colon = tested on: COLO 205 colon
SW-620 colon = tested on: SW-620 colon
K-562 leukemia = tested on: K-562 leukemia
SF-295 CNS = tested on: SF-295 CNS
IGROV1 ovarian = tested on: IGROV1 ovarian
U251 CNS = tested on: U251 CNS

Row | SMILES | TGI (UO-31 renal) | TGI (OVCAR-8 ovarian) | TGI (SNB-75 CNS) | TGI (NCI-H522 lung) | TGI (COLO 205 colon) | TGI (SW-620 colon) | TGI (K-562 leukemia) | TGI (SF-295 CNS) | TGI (IGROV1 ovarian) | TGI (U251 CNS) | GI50 (UO-31 renal) | GI50 (OVCAR-8 ovarian) | GI50 (SNB-75 CNS) | GI50 (NCI-H522 lung) | GI50 (COLO 205 colon) | GI50 (SW-620 colon) | GI50 (K-562 leukemia) | GI50 (SF-295 CNS) | GI50 (U251 CNS) | GI50 (IGROV1 ovarian)
1 | NC(CCSCC(F)(F)F)C(=O)O (stereo unspecified) | > 100000 nM | > 100000 nM | > 100000 nM | > 100000 nM | > 100000 nM | > 100000 nM | > 100000 nM | > 100000 nM | > 100000 nM | > 100000 nM |  |  |  |  |  |  |  |  |  | 
2 | Cc1ccc2c(c1)[n+](=O)c(C(=O)c1cccs1)c(C(F)(F)F)n2[O-] | 50000 nM |  | 17300 nM |  | 7680 nM and 10900 nM | 50000 nM and 20400 nM | 50000 nM and 19500 nM | 2460 nM and 5870 nM | 332 nM | 10100 nM and 14300 nM | 1350 nM | 1670 nM and 247 nM | 2860 nM | 1370 nM and 230 nM | 1470 nM and 842 nM | 2020 nM and 3580 nM | 1010 nM and 466 nM | 786 nM and 842 nM | 1600 nM and 906 nM | 
3 | COc1ccc(C(=O)/C=C/c2sc(Cl)nc2Cl)cc1 | 2900 nM | 13900 nM | 8290 nM | 4850 nM | 6740 nM | 2790 nM | > 100000 nM | 11700 nM | 1910 nM | 3830 nM | 1450 nM | 1050 nM | 2560 nM | 452 nM | 2280 nM | 613 nM | 328 nM | 3070 nM | 1680 nM | 368 nM
4 | C[C@@H]1CC[C@H]2[C@@H](C)C(O)O[C@@H]3O[C@]4(C)CC[C@@H]1[C@]32OO4 (stereo partly specified) | 2310 nM | 12700 nM | 15600 nM | 3290 nM | 3000 nM | 17000 nM | 4570 nM | 35400 nM | 5230 nM | 16600 nM | 375 nM | 389 nM | 2540 nM | 329 nM | 718 nM | 347 nM | 337 nM | 625 nM | 532 nM | 1130 nM
5 | N#CCCN(CCC#N)c1ccc(/C=C(/NC(=O)c2cc([N+](=O)[O-])ccc2Cl)C(=O)N=[N+]=[N-])cc1 | > 100000 nM | > 100000 nM | > 100000 nM | > 100000 nM | > 100000 nM | > 100000 nM | > 100000 nM | > 100000 nM | > 100000 nM | > 100000 nM |  |  |  |  |  |  |  |  |  | 
6 | C[C@H]1CCC/C=C/C2CC(OC(=O)CN(C)C)CC2C(OC(=O)CN(C)C)/C=C/C(=O)O1 (stereo partly specified) | 765 nM | > 22900 nM |  | 2830 nM | 3600 nM | 1950 nM | > 100000 nM | 37200 nM | 34400 nM | 46800 nM | 142 nM | 308 nM | 56.7 nM | 658 nM | 246 nM | 318 nM | 3290 nM | 1110 nM | 861 nM | 1710 nM
